Laboratory results from article PMC10362908 (2023).

Key:
Conditions in all cases: Na+ 10 mM; Mg2+ carried over from 12 mM annealing buffer; 5 mM TRIS pH 7.0, 20 °C; 0.5 µM DNA, 160 µM PIC; super aggregate
[1] = tested on: dsDNA + AF (DNA, duplex, amino modifier C6 dT at 19 of strand 1) TGCAAGGTCCGCGAGGTGTAC/GTACACCTCGCGGACCTTGCA; assay: absorbance (580 nm aggregate peak, AF red shift)
[2] = tested on: ssDNA (DNA, single strand) TGCAAGGTCCGCGAGGTGTAC; assay: fluorescence emission (523 nm excitation), aggregate formation
[3] = tested on: GC (DX-tile) (DNA, junction) TCAGAAGAACGCGCGCGCGC/ACGCATTTGTCGTTCTTCTGATGACCTTGCA/GTACACCTCGAGCGCGCGCGCTTGTCTGCAA/TTGCAGACAAGACAAATGCGT/TGCAAGGTCCGCGAGGTGTAC; assay: as above
[4] = tested on: AT (DX-tile) (DNA, junction) TCAGAAGAACAAAAAAAAAA/ACGCATTTGTCGTTCTTCTGATGACCTTGCA/GTACACCTCGCTTTTTTTTTTGTGTCTGCAA/TTGCAGACACGACAAATGCGT/TGCAAGGTCCGCGAGGTGTAC; assay: as above
[5] = tested on: ssDNA + AF (Strand 5-AF) (DNA, single strand, amino modifier C6 dT at 19) TGCAAGGTCCGCGAGGTGTAC; assay: absorbance (580 nm aggregate peak, AF red shift)
[6] = tested on: AT + AF (DX-tile) (DNA, junction, amino modifier C6 dT at 19 of strand 5) TCAGAAGAACAAAAAAAAAA/ACGCATTTGTCGTTCTTCTGATGACCTTGCA/GTACACCTCGCTTTTTTTTTTGTGTCTGCAA/TTGCAGACACGACAAATGCGT/TGCAAGGTCCGCGAGGTGTAC; assay: absorbance (580 nm aggregate peak, AF red shift)
[7] = tested on: GC + AF (DX-tile) (DNA, junction, amino modifier C6 dT at 19 of strand 5) TCAGAAGAACGCGCGCGCGC/ACGCATTTGTCGTTCTTCTGATGACCTTGCA/GTACACCTCGAGCGCGCGCGCTTGTCTGCAA/TTGCAGACAAGACAAATGCGT/TGCAAGGTCCGCGAGGTGTAC; assay: absorbance (580 nm aggregate peak, AF red shift)
[8] = tested on: dsDNA (DNA, duplex) TGCAAGGTCCGCGAGGTGTAC/GTACACCTCGCGGACCTTGCA; assay: fluorescence emission (523 nm excitation), aggregate formation

binding [1]: yes
binding [2]: yes
binding [3]: yes
binding [4]: yes
binding [5]: yes
binding [6]: yes
binding [7]: yes
binding [8]: yes
Compound: CCN1C(=Cc2ccc3ccccc3[n+]2CC)C=Cc2ccccc21
